Here are results for three molecules from patent US9533968B2, “N-thio-anthranilamide compounds and their use as pesticides” (BASF SE, priority 2012, dated 2017).

Common to all, as to format: in vivo
For data set [1], the system named is Silverleaf Whitefly (Bemisia argentifolii). The experiment in a line: Silverleaf whitefly test, sprayed cotton plants. The following applies: at 100 ppm; silverleaf whitefly adults; 3 days after treatment. The text has this:
(§1) The active compounds are formulated in cyclohexanone as a 10,000 ppm solution supplied in tubes. The tubes are inserted into an automated electrostatic sprayer equipped with an atomizing nozzle and they serve as stock solutions for which lower dilutions are made in 50% acetone:50% water (v/v). A nonionic surfactant (Kinetic®) is included in the solution at a volume of 0.01% (v/v).
Cotton plants at the cotyledon stage (one plant per pot) are sprayed by an automated electrostatic plant sprayer equipped with an atomizing spray nozzle. The plants are dried in the sprayer fume hood and then removed from the sprayer. Each pot is placed into a plastic cup and about 10 to 12 whitefly adults (approximately 3-5 days old) are introduced. The insects are collected using an aspirator and a nontoxic Tygon® tubing connected to a barrier pipette tip. The tip, containing the collected insects, is then gently inserted into the soil containing the treated plant, allowing insects to crawl out of the tip to reach the foliage for feeding. Cups are covered with a reusable screened lid. Test plants are maintained in a growth room at about 25° C. and about 20-40% relative humidity for 3 days, avoiding direct exposure to fluorescent light (24 hour photoperiod) to prevent trapping of heat inside the cup. Mortality is assessed 3 days after treatment, compared to untreated control plants.

Data set [2] deals with Rice Green Leafhopper (Nephotettix virescens). The experiment in a line: Rice green leafhopper test, sprayed rice seedlings. The following applies: 72 h, read-out: mortality in comparison with untreated controls. As for the experimental part:
Rice seedlings are cleaned and washed 24 hours before spraying. The active compounds are formulated in 50:50 acetone:water (vol:vol), and 0.1% vol/vol surfactant (EL 620) is added. Potted rice seedlings are sprayed with 5 ml test solution, air dried, placed in cages and inoculated with 10 adults. Treated rice plants are kept at about 28-29° C. and relative humidity of about 50-60%. Percent mortality is recorded after 72 hours.

For data set [3], the system named is Colorado Potato Beetle (Leptinotarsa decemlineata). The experiment in a line: Colorado potato beetle test, sprayed eggplant foliage. The following applies: foliar, 96 h, read-out: mortality in comparison with untreated controls. As for the experimental part: as §1
Eggplants are grown 2 plants to a pot and are selected for treatment at the 1st true leaf stage. Test solutions are sprayed onto the foliage by an automated electrostatic plant sprayer equipped with an atomizing spray nozzle. The plants are dried in the sprayer fume hood and then removed from the sprayer. The treated foliage is then cut and removed from the pot and placed in a Petri dish lined with moistened filter pa-per. Five beetle larvae are introduced into each Petri dish and the dish is covered by a Petri dish lid. Petri dishes are maintained in a growth room at about 25° C. and about 20-40% relative humidity for 4 days, avoiding direct exposure to fluorescent light (24 hour photoperiod) to prevent trapping of heat inside the dishes. Mortality and reduced feeding are assessed 4 days after treatment, compared to untreated control plants.

The subject of data set [4] is Tobacco Budworm (Heliothis virescens). The experiment in a line: Tobacco budworm test, microtiter plates with insect diet and eggs. The following applies: 120 h, read-out: mortality in comparison with untreated controls. As for the experimental part:
The test unit consisted of 96-well-microtiter plates containing an insect diet and 15-25 H. virescens eggs. The compounds were formulated using a solution containing 75% v/v water and 25% v/v DMSO. Different concentrations of formulated compounds were sprayed onto the insect diet at 10 μl, using a custom built micro atomizer, at two replications.
After application, microtiter plates were incubated at about 28±1° C. and about 80±5% relative humidity for 5 days. Egg and larval mortality was then visually assessed.

For data set [5], the system named is boll weevil (Anthonomus grandis). The experiment in a line: Boll weevil test, microtiter plates with insect diet and eggs. The following applies: 120 h, read-out: mortality in comparison with untreated controls. As for the experimental part:
For evaluating control of boll weevil (Anthonomus grandis) the test unit consists of 24-well-microtiter plates containing an insect diet and 20-30 A. grandis eggs.
The compounds are formulated using a solution containing 75% v/v water and 25% v/v DMSO. Different concentrations of formulated compounds are sprayed onto the insect diet at 20 μl, using a custom built micro atomizer, at two replications.
After application, microtiter plates are incubated at about 23±1° C. and about 50±5% relative humidity for 5 days. Egg and larval mortality is then visually assessed.

Data set [6] deals with Diamond Back Moth (Plutella Xylostella). The experiment in a line: Diamond back moth test, cabbage leaf dip. The following applies: foliar, 72 h, read-out: mortality in comparison with untreated controls. As for the experimental part: The active compound is dissolved at the desired concentration in a mixture of 1:1 (vol/vol) distilled water:aceteone. Surfactant (Alkamuls® EL 620) is added at a rate of 0.1% (vol/vol). The test solution is prepared at the day of use.
Leaves of cabbage are dipped in test solution and air-dried. Treated leaves are placed in petri dishes lined with moist filter paper and inoculated with ten 3rd instar larvae. Mortality is recorded 72 hours after treatment. Feeding damages are also recorded using a scale of 0-100%.

Data set [7] deals with vetch aphid (Megoura viciae). The experiment in a line: Vetch aphid test, broad bean leaf disks in microtiter plates. The following applies: foliar, 120 h, read-out: mortality in comparison with untreated controls. As for the experimental part: For evaluating control of vetch aphid (Megoura viciae) through contact or systemic means the test unit consists of 24-well-microtiter plates containing broad bean leaf disks.
The compounds are formulated using a solution containing 75% v/v water and 25% v/v DMSO. Different concentrations of formulated compounds are sprayed onto the leaf disks at 2.5 μl, using a custom built micro atomizer, at two replications.
After application, the leaf disks are air-dried and 5-8 adult aphids placed on the leaf disks inside the microtiter plate wells. The aphids are then allowed to suck on the treated leaf disks and incubated at about 23±1° C. and about 50±5% relative humidity for 5 days. Aphid mortality and fecundity is then visually assessed.

The subject of data set [8] is Orchid Thrips (Dichromothrips Corbetti). The experiment in a line: Orchid thrips test, floral-immersion technique. The following applies: 96 h, read-out: mortality in comparison with untreated controls. As for the experimental part: Dichromothrips corbetti adults used for bioassay are obtained from a colony maintained continuously under laboratory conditions. For testing purposes, the test compound is diluted to a concentration of 300 ppm (wt compound: vol diluent) in a 1:1 mixture of acetone:water (vol:vol), plus 0.01% vol/vol Kinetic® surfactant.
Thrips potency of each compound is evaluated by using a floral-immersion technique. Plastic petri dishes are used as test arenas. All petals of individual, intact orchid flowers are dipped into treatment solution and allowed to dry. Treated flowers are placed into individual petri dishes along with 10-15 adult thrips. The petri dishes are then covered with lids. All test arenas are held under continuous light and a temperature of about 28° C. for duration of the assay. After 4 days, the numbers of live thrips are counted on each flower, and along inner walls of each petri dish. The level of thrips mortality is extrapolated from pre-treatment thrips numbers.

For data set [9], the system named is Mediterranean fruitfly (Ceratitis capitata). The experiment in a line: Mediterranean fruitfly test, microtiter plates with insect diet and eggs. The following applies: 120 h, read-out: mortality in comparison with untreated controls. As for the experimental part:
For evaluating control of Mediterranean fruitfly (Ceratitis capitata) the test unit consists of microtiter plates containing an insect diet and 50-80 C. capitata eggs.
The compounds are formulated using a solution containing 75% v/v water and 25% v/v DMSO. Different concentrations of formulated compounds are sprayed onto the insect diet at 5 μl, using a custom built micro atomizer, at two replications.
After application, microtiter plates are incubated at about 28±1° C. and about 80±5% relative humidity for 5 days. Egg and larval mortality is then visually assessed.

Data set [10] concerns Southern Armyworm (Spodoptera eridania). In words: Southern armyworm test, sprayed lima bean plants. As to conditions: 96 h, read-out: mortality in comparison with untreated controls. As for the experimental part: as §1
Lima bean plants (variety Sieva) are grown 2 plants to a pot and selected for treatment at the 1st true leaf stage. Test solutions are sprayed onto the foliage by an automated electrostatic plant sprayer equipped with an atomizing spray nozzle. The plants are dried in the sprayer fume hood and then removed from the sprayer. Each pot is placed into perforated plastic bags with a zip closure. About 10 to 11 armyworm larvae are placed into the bag and the bags zipped closed. Test plants are maintained in a growth room at about 25° C. and about 20-40% relative humidity for 4 days, avoiding direct exposure to fluorescent light (24 hour photoperiod) to prevent trapping of heat inside the bags. Mortality and reduced feeding are assessed 4 days after treatment, compared to untreated control plants.

The subject of data set [11] is Cowpea Aphid (Aphis Craccivora). In words: Cowpea aphid test, sprayed potted cowpea plants. The following applies: read-out: mortality in comparison with untreated controls. As for the experimental part:
If not otherwise specified the test solutions are prepared as follow:
The active compound is dissolved at the desired concentration in a mixture of 1:1 (vol:vol) distilled water:aceton. The test solution is prepared at the day of use and in general at concentrations of […].
Potted cowpea plants colonized with approximately 100-150 aphids of various stages are sprayed after the pest population has been recorded. Population reduction is assessed after 24, 72, and 120 hours.

In general, mortality refers to the share of the test organisms that died.

SMILES strings stand for the structures. A value given as a limit tells only on which side of the number the result lay.

With `CC(C)[S+]([O-])NC(=O)c1cc(Br)cc(Br)c1NC(=O)c1cc(C(F)(F)F)nn1-c1ncccc1Cl` (stereo not drawn) [Compound 1-7], in data set [1], the “mortality in comparison with untreated controls” value is recorded as “over 75%”.

In the case of `CSNC(=O)c1cc(Cl)cc(C)c1NC(=O)c1cc(C(F)(F)F)nn1-c1ncccc1Cl` [Compound 1-22, N-[4-chloro-2-methyl-6-(methylsulfanylcarbamoyl)phenyl]-2-(3-chloro-2-pyridyl)-5-(trifluoromethyl)pyrazole-3-carboxamide], the mortality at 500 ppm in data set [2], in data set [6] and in [8] was over 75% in each case. The mortality at 1 ppm in data set [3] and in data set [10] was over 75% each time. Further, the mortality at 2500 ppm in data set [4], in data set [5], in [7] and in data set [9] was over 75% in each case.

Take `Cc1cc(Cl)cc(C(=O)N[S+](C)[O-])c1NC(=O)c1cc(C(F)(F)F)nn1-c1ncccc1Cl` (stereo not drawn) [Compound 1-28, N-[4-chloro-2-methyl-6-(methylsulfinylcarbamoyl)phenyl]-2-(3-chloro-2-pyridyl)-5-(trifluoromethyl)pyrazole-3-carboxamide]: the mortality at 500 ppm in data set [2], in [6], in data set [11] and in data set [8] was over 75% throughout. Further, the mortality at 2500 ppm in data set [4], in data set [5], in [7] and in data set [9] was over 75% in each case.
